According to US11878973B2, “Bicyclic compounds and their uses” (NOVARTIS AG, priority 2021, dated 2024):
Read-outs that look alike come from different tables or passages of the source.

Legend:
SW48 cells = test: Proliferation assay SW48 (CellTiterGlo, 96 hours)
Experimental: The WRN-knockdown insensitive colon carcinoma cell line DLD-1 (RRID: CVCL_0248) was obtained from the Korean Cell Line Bank (KCLB), and used to generate a derivative in which the endogenous WRN gene copies were knocked out by CRISPR-mediated editing using standard CRISPR methods. The resulting cell line, DLD1-WRN—KO, was used to assess potential off-target compound effects.
All cells were maintained at 37° C. in a humidified 5% CO2 incubator.
For data analysis, the assay background signal that was determined in wells containing medium, but no cells, was subtracted from all other data points prior to further calculations. The extent of growth inhibition and potential cell kill was assessed by comparing the ATP levels (measured using CellTiterGlo, Promega) in compound-treated cells with those present at the time of compound addition. […] 100%, 0% and −100% signify absence of growth inhibition, growth stasis, and complete cell kill, respectively. Compound concentrations leading to half-maximal growth inhibition (G150) and residual cell viability at the highest tested compound concentration (Data (cmax), expressed in percent) were routinely calculated. Data analysis can also be carried out using commercially available software designed to derive IC50 values using 4-parameter fits (e.g. GraphPad Prism, XL fit). The reported GI50 values are the geometrical means of at least 2 independent replicates.

WRN helicase = WRN helicase (Homo sapiens (Human), UniProt Q14191); test: In vitro enzymatic activity assay on WRN helicase (DNA dependent ATPase assay, ADP-Glo); format: biochemical; conditions: geometric means of at least 2 determinations; read-out: WRN ATPase Activity (IC50)
Source text: An ATPase assay was set up to measure the DNA dependent ATP hydrolysis activity of WRN helicase. This assay was used also to assess the inhibition properties of compounds of the invention on DNA dependent WRN ATPase activity.
The core helicase motif of the WRN protein (aa N517-P1238) was produced for this assay (protein production as described above). […] The ADP-Glo assay kit (Promega, Madison, WI) allowing the quantification of ADP produced in ATP hydrolysis reactions was used for setting up this assay.
Time course experiments were first performed in order to determine the best enzymatic assay conditions (including buffer conditions, reaction time and concentrations of protein, ATP and DNA substrates). A typical reaction consists of 10 nM WRN protein, 0.2 nM FLAP26, and 300 micromolar ATP in the following assay buffer: 30 mM Tris pH7.5, 2 mM MgCl2, 0.02% BSA, 50 mM NaCl, 0.1% pluronic F127 prepared in DNAse free water. To evaluate the inhibition properties of compounds of the invention, serial dilutions were prepared in DMSO (10 half log dilutions from a 10 mM DMSO solution). […] The reaction was started by addition of 2.5 microliters of FLAP26 at 0.4 nM and incubated for 30 minutes at room temperature. The reaction was stopped with the addition of 5 microliters of the first ADP-Glo reagent and incubated for one hour to remove the excess amount of ATP. Afterwards, 10 microliters of ATP detection reagent was added and incubated for an additional hour before reading. Luminescence output was recorded using Tecan 1000 reader, with 5 minutes delay before reading. Each concentration of compound was tested in duplicates in the assay plate.
Following normalization of activity values for the wells to % inhibition (% inhibition=[(high control-sample)/(high control-low control)]×100), IC50 fitting was carried out from the duplicate determinations present on each plate according to [4]. Data analysis can also be carried out using commercially available software designed to derive IC50 values using 4-parameter fits (e.g. GraphPad Prism, XL fit). The reported IC50 values are the geometrical means of at least 2 independent replicates.

DLD1-WRN-KO cells = test: Proliferation assay DLD1-WRN-KO (CellTiterGlo, 96 hours; off-target effects); conditions: read-out: Proliferation Assay DLD1-WRN-KO (GI50)
[1] = Homo sapiens, SW48, read-out: Proliferation Assay SW48 (GI50)
[2] = read-out: Proliferation Assay SW48 (GI50), SW48 cell line, geometric means of at least 2 determinations
[3] = DLD1-WRN-KO cell line, geometric means of at least 2 determinations

Chain of WRN helicase (Q14191 517-1238): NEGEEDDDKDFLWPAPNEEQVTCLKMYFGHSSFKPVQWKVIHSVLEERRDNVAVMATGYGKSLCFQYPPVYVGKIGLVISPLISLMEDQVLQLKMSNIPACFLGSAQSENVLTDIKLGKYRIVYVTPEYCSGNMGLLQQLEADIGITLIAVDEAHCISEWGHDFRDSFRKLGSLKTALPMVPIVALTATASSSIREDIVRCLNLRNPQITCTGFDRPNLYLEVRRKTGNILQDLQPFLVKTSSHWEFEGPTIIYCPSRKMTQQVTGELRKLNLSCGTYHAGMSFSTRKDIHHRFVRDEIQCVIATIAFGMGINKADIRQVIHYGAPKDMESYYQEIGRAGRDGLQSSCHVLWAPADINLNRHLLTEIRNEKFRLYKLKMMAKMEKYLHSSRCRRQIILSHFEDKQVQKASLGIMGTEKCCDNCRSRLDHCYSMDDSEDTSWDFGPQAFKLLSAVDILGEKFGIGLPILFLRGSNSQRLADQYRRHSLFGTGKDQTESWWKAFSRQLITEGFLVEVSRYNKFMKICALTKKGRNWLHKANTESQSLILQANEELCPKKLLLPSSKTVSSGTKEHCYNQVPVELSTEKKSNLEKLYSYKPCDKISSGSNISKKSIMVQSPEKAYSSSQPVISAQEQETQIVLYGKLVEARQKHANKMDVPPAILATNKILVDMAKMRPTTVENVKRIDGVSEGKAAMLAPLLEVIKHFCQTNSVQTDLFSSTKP

Structure (SMILES)	GI50 (SW48 cells; [1]) [µM]	IC50 (WRN helicase) [µM]	GI50 (DLD1-WRN-KO cells; Homo sapiens) [µM]	GI50 (SW48 cells; [2]) [µM]	GI50 (DLD1-WRN-KO cells; [3]) [µM]
CCc1c(N2CCN(C(=O)c3ncccc3O)CC2)c(=O)n2nc(N3CCCC(F)C3)nc2n1CC(=O)Nc1cc(Cl)c(C(F)(F)F)cc1C (racemic) [Example 13, rac-N-(5-chloro-2-methyl-4-(trifluoromethyl)phenyl)-2-(5-ethyl-2-(3-fluoropiperidin-1-yl)-6-(4-(3-hydroxypicolinoyl)piperazin-1-yl)-7-oxo-[1,2,4]triazolo[1,5-a]pyrimidin-4(7H)-yl)acetamide]	0.16	0.03	5.2	–	–
CCc1c(N2CCN(C(=O)c3ncccc3O)CC2)c(=O)n2nc(N3CCCC(F)C3)nc2n1CC(=O)Nc1ccc(C(F)(F)F)cc1Cl (racemic) [Example 15, rac-N-(2-chloro-4-(trifluoromethyl)phenyl)-2-(5-ethyl-2-(3-fluoropiperidin-1-yl)-6-(4-(3-hydroxypicolinoyl)piperazin-1-yl)-7-oxo-[1,2,4]triazolo[1,5-a]pyrimidin-4(7H)-yl)acetamide]	0.44	0.11	> 10	–	–
CCc1c(N2CCN(C(=O)c3ncccc3O)CC2)c(=O)n2nc(N3CCCC(F)C3)nc2n1CC(=O)Nc1ccc(C(F)(F)F)nc1Cl (racemic) [Example 16, rac-N-(2-chloro-6-(trifluoromethyl)pyridin-3-yl)-2-(5-ethyl-2-(3-fluoropiperidin-1-yl)-6-(4-(3-hydroxypicolinoyl)piperazin-1-yl)-7-oxo-[1,2,4]triazolo[1,5-a]pyrimidin-4(7H)-yl)acetamide]	0.32	0.23	> 10	–	–
CCc1c(N2CCN(C(=O)c3ncccc3O)CC2)c(=O)n2nc(C3=CCC(OC)CC3)nc2n1CC(=O)Nc1ccc(C(F)(F)F)nc1C (racemic) [Example 26, rac-2-(5-ethyl-6-(4-(3-hydroxypicolinoyl)piperazin-1-yl)-2-(4-methoxycyclohex-1-en-1-yl)-7-oxo-[1,2,4]triazolo[1,5-a]pyrimidin-4(7H)-yl)-N-(2-methyl-6-(trifluoromethyl)pyridin-3-yl)acetamide]	0.08	0.25	> 10	–	–
CCc1c(N2CCN(C(=O)c3ncccc3O)CC2)c(=O)n2nc(N3CCC[C@@H](F)C3)nc2n1CC(=O)Nc1ccc(C(F)(F)F)cc1Cl (single isomer, unassigned) [Example 15a, ((R)—N-(2-chloro-4-(trifluoromethyl)phenyl)-2-(5-ethyl-2-(3-fluoropiperidin-1-yl)-6-(4-(3-hydroxypicolinoyl)piperazin-1-yl)-7-oxo-[1,2,4]triazolo[1,5-a]pyrimidin-4(7H)-yl)acetamide) or ((S)—N-(2-chloro-4-(trifluoromethyl)phenyl)-2-(5-ethyl-2-(3-fluoropiperidin-1-yl)-6-(4-(3-hydroxypicolinoyl)piperazin-1-yl)-7-oxo-[1,2,4]triazolo[1,5-a]pyrimidin-4(7H)-yl)acetamide)]	–	0.14	–	0.4	> 10
CCc1c(N2CCN(C(=O)c3ncnc(C)c3O)CC2)c(=O)n2nc(C3=CCOCC3)nc2n1CC(=O)Nc1ccc(C(F)(F)F)cc1Cl [Example 42, N-(2-chloro-4-(trifluoromethyl)phenyl)-2-(2-(3,6-dihydro-2H-pyran-4-yl)-5-ethyl-6-(4-(5-hydroxy-6-methylpyrimidine-4-carbonyl)piperazin-1-yl)-7-oxo-[1,2,4]triazolo[1,5-a]pyrimidin-4(7H)-yl)acetamide]	0.05	–	–	–	–
[2H]C([2H])(C(=O)Nc1ccc(C(F)(F)F)cc1Cl)n1c(CC)c(N2CCN(C(=O)c3ncnc(C)c3O)CC2)c(=O)n2nc(C3=CCOCC3)nc12 [Example 43, N-(2-chloro-4-(trifluoromethyl)phenyl)-2-(2-(3,6-dihydro-2H-pyran-4-yl)-5-ethyl-6-(4-(5-hydroxy-6-methylpyrimidine-4-carbonyl)piperazin-1-yl)-7-oxo-[1,2,4]triazolo[1,5-a]pyrimidin-4(7H)-yl)acetamide-2,2-d2]	0.05	–	–	–	–
Cc1c(N2CCN(C(=O)c3ncccc3O)CC2)c(=O)n2nc(C3=CCN(C(=O)OC(C)(C)C)CC3)nc2n1CC(=O)Nc1ccc(C(F)(F)F)cc1 [Example 126, tert-butyl 4-(6-(4-(3-hydroxypicolinoyl)piperazin-1-yl)-5-methyl-7-oxo-4-(2-oxo-2-((4-(trifluoromethyl)phenyl)amino)ethyl)-4,7-dihydro-[1,2,4]triazolo[1,5-a]pyrimidin-2-yl)-3,6-dihydropyridine-1(2H)-carboxylate]	–	0.13	–	–	–

More lines, now with the values ahead:

GI50 (SW48 cells; [1]) [µM]	IC50 (WRN helicase) [µM]	GI50 (DLD1-WRN-KO cells; Homo sapiens) [µM]	GI50 (SW48 cells; [2]) [µM]	GI50 (DLD1-WRN-KO cells; [3]) [µM]	Structure (SMILES)
0.48	0.14	> 10	–	–	CCc1c(N2CCN(C(=O)c3ncccc3O)CC2)c(=O)n2nc(N3CCCC(F)C3)nc2n1CC(=O)Nc1ccc(C(F)(F)F)cc1C (racemic) [Example 14, rac-2-(5-ethyl-2-(3-fluoropiperidin-1-yl)-6-(4-(3-hydroxypicolinoyl)piperazin-1-yl)-7-oxo-[1,2,4]triazolo[1,5-a]pyrimidin-4(7H)-yl)-N-(2-methyl-4-(trifluoromethyl)phenyl)acetamide]
0.07	0.06	> 10	–	–	CCc1c(N2CCN(C(=O)c3ncccc3O)CC2)c(=O)n2nc(C3=CCC(OC)CC3)nc2n1CC(=O)Nc1ccc(C(F)(F)F)cc1C (racemic) [Example 80, rac-2-(5-ethyl-6-(4-(3-hydroxypicolinoyl)piperazin-1-yl)-2-(4-methoxycyclohex-1-en-1-yl)-7-oxo-[1,2,4]triazolo[1,5-a]pyrimidin-4(7H)-yl)-N-(2-methyl-4-(trifluoromethyl)phenyl)acetamide]
1.12	0.33	> 10	–	–	CCc1c(N2CCN(C(=O)c3ncccc3O)CC2)c(=O)n2nc(C3=CCC(F)CN3)nc2n1CC(=O)Nc1ccc(C(F)(F)F)cc1C (racemic) [Example 111, rac-2-(5-ethyl-2-(5-fluoro-1,4,5,6-tetrahydropyridin-2-yl)-6-(4-(3-hydroxypicolinoyl)piperazin-1-yl)-7-oxo-[1,2,4]triazolo[1,5-a]pyrimidin-4(7H)-yl)-N-(2-methyl-4-(trifluoromethyl)phenyl)acetamide]
–	0.12	–	0.36	> 10	CCc1c(N2CCN(C(=O)c3ncccc3O)CC2)c(=O)n2nc(N3CCC[C@@H](F)C3)nc2n1CC(=O)Nc1ccc(C(F)(F)F)cc1Cl (single isomer, unassigned) [Example 15b, ((R)—N-(2-chloro-4-(trifluoromethyl)phenyl)-2-(5-ethyl-2-(3-fluoropiperidin-1-yl)-6-(4-(3-hydroxypicolinoyl)piperazin-1-yl)-7-oxo-[1,2,4]triazolo[1,5-a]pyrimidin-4(7H)-yl)acetamide) or ((S)—N-(2-chloro-4-(trifluoromethyl)phenyl)-2-(5-ethyl-2-(3-fluoropiperidin-1-yl)-6-(4-(3-hydroxypicolinoyl)piperazin-1-yl)-7-oxo-[1,2,4]triazolo[1,5-a]pyrimidin-4(7H)-yl)acetamide)]
0.06	–	–	–	–	[2H]C1([2H])N(C(=O)c2ncnc(C)c2O)C([2H])([2H])C([2H])([2H])N(c2c(CC)n(CC(=O)Nc3ccc(C(F)(F)F)cc3Cl)c3nc(C4=CCOCC4)nn3c2=O)C1([2H])[2H] [Example 133, N-(2-chloro-4-(trifluoromethyl)phenyl)-2-(2-(3,6-dihydro-2H-pyran-4-yl)-5-ethyl-6-(4-(5-hydroxy-6-methylpyrimidine-4-carbonyl)piperazin-1-yl-2,2,3,3,5,5,6,6-d8)-7-oxo-[1,2,4]triazolo[1,5-a]pyrimidin-4(7H)-yl)acetamide]
